According to the NIST ThermoML archive (doi:10.1016/j.fluid.2010.03.010):
Several values for one entry are separate records, joined by “and”; a condition that tells them apart may be missing. Equal values may be shown once.

Experiment: xn = mol fraction of the nth substance listed
Settings: 298.03 K, 101.3 kPa, Liquid, Taylor dispersion method

Compound | binary diffusion coefficient (x2 = 0) | binary diffusion coefficient (x1 = 0)
CCCC[n+]1ccn(C)c1.O=S(=O)([N-]S(=O)(=O)C(F)(F)F)C(F)(F)F + O | 4e-08 m2/s [middle of 4 runs] | 
CCCCn1cc[n+](C)c1.N#CN=C=[N-] [1-butyl-3-methylimidazolium dicyanamide] + O | 2.08e-08 m2/s and 2.13e-08 m2/s and 2.11e-08 m2/s and 2.03e-08 m2/s and 1.98e-08 m2/s and 2.05e-08 m2/s and 2e-08 m2/s and 2.28e-08 m2/s | 
CCOS(=O)(=O)[O-].CCn1cc[n+](C)c1 [1-ethyl-3-methylimidazolium ethyl sulfate] + O |  | 9.62e-08 m2/s and 9.15e-08 m2/s and 9.84e-08 m2/s and 9.79e-08 m2/s
